Key:
ARPE-19 cells under UOS = assay: Western blot of pro-survival and pro-apoptotic proteins in ARPE-19 cells under UOS; type: cell-based, human; conditions: for Iduna expression (VLC-PUFA): RPE cells under UOS (FIG. 7D); for SIRT1 expression (VLC-PUFA): RPE under UOS (FIG. 7C); for Bax protein / Bcl-2 protein / Bcl-xL protein / Bid protein / Bim protein: Western blot, UOS; for Prohibitin (type-1) expression (VLC-PUFA): concentration-dependent, 100 and 250 nM (FIG. 7J); for Iduna expression (ELV): 200 nM; for Sirtuin1 (SIRT1) expression (ELV): dose-dependent, 100-200 nM
Description: (§1) ARPE19 cells at 75-80% confluence (72 h growth in DMEM/F12+10% FBS) in 6-well plates were serum-starved for 8 h before exposure. The serum-starved cells were treated with TNF-α (Sigma-Aldrich, St. Louis, Mo.) (10 ng/ml) and H2O2 (600 μM) to induce oxidative stress and challenged with increasing concentrations (50-500 nM) of VLC-PUFA (C32:6n3 and C34:6n3) simultaneously with oxidative stress for 16 h (apoptosis) and 6 h (Western-blot) before detection of apoptosis and harvesting for protein analysis. In some experiments, DHA at a concentration of 100 nM and 15-LOX-1 inhibitor PD146176 at a concentration of 1 μM was added to treat the RPE cells under stress. Cell extracts were made and protein concentrations adjusted by Bio-Rad (Hercules, Calif.) protein reagent and used for Western blot analysis.
Analysis of Proteins: Bcl-2 family proteins, SIRT1 and Proinhibitin (type-1), and Iduna proteins were analyze by Western blot analysis. In brief, 20-25 μg equivalents of each cell extracts were subject to electrophoresis on a 4-12% gel (Promega) at 125 V for 2 h. The proteins were transferred to nitrocellulose membrane by I-blot transfer apparatus. The membranes were subjected to treatment with primary antibodies specific for Bcl-2, Bcl-xL, Bax, Bid, Bim, SIRT1 and Prohibitin (type-1) (Santa Cruz Biotechnology) and Iduna antibody (Neuro-Mab Lab, UCLA, Los Angeles, Calif.) overnight at 4° C. and probed for 45 mins with secondary antibody, goat anti-mouse Ig:horseradish peroxidase, and horseradish peroxidase-conjugated anti-biotin antibody, and then proteins were evaluated by using an ECL kit (Amersham).

ARPE-19 cells = assay: UOS-induced apoptosis in ARPE-19 cells (Hoechst-positive pyknotic cells); type: cell-based, human; conditions: for protection against UOS: free fatty acids (FIGS. 7A and 7B); for UOS-induced apoptosis: 200 nM (FIG. 10C); for UOS-induced apoptotic cell death, concentration-dependent: 50-500 nM (FIG. 10G); for concentration of highest inhibition of UOS-induced apoptosis / concentration of lowest inhibition of UOS-induced apoptosis: tested 50-500 nM
Description: as §1
To assess cell death, hRPE and ARPE-19 cells were fixed with methanol for 15 mins, washed with 1× PBS then loaded with 2 μM Hoechst dissolved in a Locke's solution (Promega) and incubated for another 15 mins before imaging. Cells were then viewed by using a Zeiss LSM 510 confocal microscope under UV fluorescence. Images were recorded and cell apoptosis was assessed by using an automated unbiased method.

[1] = test system: hippocampal mixed neuronal culture; assay: Oxygen glucose deprivation (OGD) in hippocampal mixed neuronal culture; type: cell-based, rat; conditions: 500 nM, DIV 12, 90 min OGD (FIG. 18G)
Text: (§2) Primary cultures of cortical neurons: Primary cultures of cortical and hippocampal neurons were harvested from 18-day-old embryos (E18) taken from timed-pregnant, two-month-old Sprague-Dawley (SD) rats (Charles River Lab., Wilmington, Mass.). Briefly, timed-pregnant SD rats were euthanized and embryos were collected in sterile conditions. Embryonic brains were dissected out by forceps on ice and placed in a petri dish containing ice-cold Hank's Balanced Salt Solution (HBSS) (GIBCO). Meninges were removed under a dissecting microscope and cortical tissues were chopped into small pieces with micro-spring scissors. These tissues were transferred to 15 ml tubes containing trypsin-EDTA (0.025% in HBSS) and DNase I. The tubes were incubated in 37° C. chamber for 15 mins and were agitated every 5 mins. After stopping the trypsinization with 5 ml 10% FBS, these tissues were triturated 15 times with a fire polished Pasteur pipet. Cell clumps were left to settle for 2 mins and the supernatant was transferred to a 15 ml Eppendorf tube. The supernatant was filtered through a 70 μm pore-sized filter (Corning cell strainer) and centrifuged for 5 mins at 1000 rpm. The cells were then resuspended in Neurobasal medium (GIBCO) containing 2% B27 (GIBCO) and 2% N2 (GIBCO) supplements, along with 0.5 mM glutamine, 50 U/ml penicillin/streptomycin.
Oxygen glucose deprivation (OGD), NMDA excitotoxicity or uncompensated oxidative stress (UOS) exposure: An in vitro oxygen glucose deprivation (OGD) model was established. Primary cortical neurons were cultured from SD rat embryos. On day in vitro (DIV) 12, cells were washed with phosphate-buffered saline and incubated in glucose-free Neurobasal medium (GIBCO) for 30 mins. The cells were then placed in a modular incubator chamber and incubated in an anaerobic chamber (95% N2, 5% CO2) at 37° C. for 90 mins for OGD.
After 90 mins of OGD exposure, cells were returned to the original medium (Neurobasal medium (GIBCO) containing 2% B27 (GIBCO) and 2% N2 (GIBCO) supplements, along with 0.5 mM glutamine, 50 U/ml penicillin/streptomycin) and placed in a normoxic chamber (37° C., 5% CO2) for 2 h. Then the medium was changed with medium containing either ELV-N32 or ELV-N34 [500 nM] and maintained in a normoxic chamber (37° C., 5% CO2) for 12 h, after which cells were sampled and assayed for cell viability using different methods as previously described (25-28). […]
One 4×4 tile mosaic was acquired from the center of each well using a Zeiss 510 Meta laser confocal microscope and LSM 510 Meta software. […] An Otsu auto threshold was applied to each image of Hoechst-stained nuclei, and the area of each detected object was recorded. […]

[2] = test system: cerebral cortical mixed neuronal cells; assay: NMDA excitotoxicity in cerebral cortical mixed neuronal cultures; type: cell-based, rat; conditions: for synergy with NPD1 in neuroprotection against NMDA excitotoxicity: ELV 200 nM + NPD1 100 nM, NMDA 100 μM, 12 h (FIG. 16A); for NMDA dose-dependent increase of apoptotic nuclei: NMDA 25, 50 or 100 μM; for neuroprotection on addition of MK801 and NPD1 together, versus ELV alone: NMDA excitotoxicity; for frequency distribution of pyknotic vs non-pyknotic nuclei (nuclear size peak) after NMDA: 500 nM, NMDA 100 μM 12 h, DIV 12, Hoechst
Text: as §2
Cells were counted using a Neubauer hemocytometer. 1×10^6 cells were seeded on poly-D-lysine-coated 12 well cell culture dish (CORNING) and cultured in incubator (37° C., 5% CO2). Culture medium was first replaced after 24 h, then half of the medium was replaced with fresh medium every three days. As a result, approximately, 90% purity of neurons was obtained as determined by class-III-β tubulin, GFAP and Hoechst 33258 staining. Cells were maintained in culture for about 2 weeks until they were exposed to uncompensated oxidative stress, OGD, or NMDA excitotoxicity.
After 90 mins of OGD exposure, cells were returned to the original medium (Neurobasal medium (GIBCO) containing 2% B27 (GIBCO) and 2% N2 (GIBCO) supplements, along with 0.5 mM glutamine, 50 U/ml penicillin/streptomycin) and placed in a normoxic chamber (37° C., 5% CO2) for 2 h. Then the medium was changed with medium containing either ELV-N32 or ELV-N34 [500 nM] and maintained in a normoxic chamber (37° C., 5% CO2) for 12 h, after which cells were sampled and assayed for cell viability using different methods as previously described (25-28). Cerebral cortical mixed neuronal cells or hippocampal cells in culture were exposed to either NMDA or uncompensated oxidative stress (UOS) for 12 h by addition of either NMDA (25 μM, 50 μM, or 100 μM) concentration or by the addition of TNFα (10 ng/mL) and H2O2 (50 μM, 100 μM, or 200 μM). Cell viability and neuroprotection in the presence of ELV-N32, ELV-N34, 32:6, or 34:6 were assayed after 12 h.
Hoechst staining and unbiased image analysis: Cells were washed with 1× Dulbecco's Phosphate Buffered Saline (DPBS) containing no calcium or magnesium (GIBCO) and fixed for 10 mins using ice-cold 4% paraformaldehyde (PFA) followed by 15 mins incubation in 100% methanol. Cells were washed with 1× Phosphate Buffered Saline (PBS) pH 7.4 (GIBCO) and incubated in PBS containing 20 μM Hoechst 33258 (Molecular Probes) for 20 mins. Cells were then washed 3 times with 1× PBS and stored in 1× PBS at 4° C. until they were imaged for microscopy.
One 4×4 tile mosaic was acquired from the center of each well using a Zeiss 510 Meta laser confocal microscope and LSM 510 Meta software. Images were imported into image analysis software ImageJ (National Institutes of Health, Bethesda, Md.) and batch processed using custom macros. An Otsu auto threshold was applied to each image of Hoechst-stained nuclei, and the area of each detected object was recorded. Objects with areas <10 μm^2 were excluded from analysis. To estimate percentage non-pyknotic nuclei, a size cutoff value was chosen above which objects were assumed to be non-pyknotic. […]

| Compound | Iduna expression (VLC-PUFA) (ARPE-19 cells under UOS) | SIRT1 expression (VLC-PUFA) (ARPE-19 cells under UOS) | Bax protein (ARPE-19 cells under UOS) | Bcl-2 protein (ARPE-19 cells under UOS) | Bcl-xL protein (ARPE-19 cells under UOS) | Bid protein (ARPE-19 cells under UOS) | Bim protein (ARPE-19 cells under UOS) | Prohibitin (type-1) expression (VLC-PUFA) (ARPE-19 cells under UOS) | protection against UOS (ARPE-19 cells) | neuroprotection after OGD (Hoechst positive nuclei counting) [1] | synergy with NPD1 in neuroprotection against NMDA excitotoxicity [2] | NMDA dose-dependent increase of apoptotic nuclei [2] | neuroprotection on addition of MK801 and NPD1 together, versus ELV alone [2] | Iduna expression (ELV) (ARPE-19 cells under UOS) | Sirtuin1 (SIRT1) expression (ELV) (ARPE-19 cells under UOS) | UOS-induced apoptosis (ARPE-19 cells) | UOS-induced apoptotic cell death, concentration-dependent (ARPE-19 cells) | concentration of highest inhibition of UOS-induced apoptosis (ARPE-19 cells) [nM] | concentration of lowest inhibition of UOS-induced apoptosis (ARPE-19 cells) [nM] | frequency distribution of pyknotic vs non-pyknotic nuclei (nuclear size peak) after NMDA [2] | other results |
| --- | --- | --- | --- | --- | --- | --- | --- | --- | --- | --- | --- | --- | --- | --- | --- | --- | --- | --- | --- | --- | --- |
| CC/C=C\C/C=C\C/C=C\C/C=C\C/C=C\C/C=C\CCCCCCCCCCCCC(=O)O [32:6n3, (14Z,17Z,20Z,23Z,26Z,29Z)-dotriaconta-14,17,20,23,26,29-hexaenoic acid] | upregulation | upregulation | down regulated | upregulate | upregulate | down regulated | down regulated | upregulation | elicit protection | showed neuroprotection | – | – | – | – | – | – | – | – | – | – | NMDA excitotoxicity (precursor, 250 nM) ([2]; 250 nM (FIG. 17 graph D)): attenuate NMDA excitotoxicity |
| CC/C=C\C/C=C\C/C=C\C/C=C\C/C=C\C/C=C\CCCCCCCCCCCCCCC(=O)O [34:6n3, (16Z,19Z,22Z,25Z,28Z,31Z)-tetratriaconta-16,19,22,25,28,31-hexaenoic acid] | upregulation | upregulation | down regulated | upregulate | upregulate | down regulated | down regulated | upregulation | elicit protection | showed neuroprotection | – | – | – | – | – | – | – | – | – | – | NMDA receptor-mediated excitotoxicity (precursor, 500 nM) ([2]; 500 nM (FIG. 16H)): attenuates |
| CC/C=C\C[C@H](O)\C=C/C=C/C=C/[C@H](O)C/C=C\C/C=C\CCCCCCCCCCCCC(=O)OC [ELV-N32-Me, methyl (14Z,17Z,20R,21E,23E,25Z,27S,29Z)-20,27-dihydroxydotriaconta-14,17,21,23,25,29-hexaenoate] | – | – | – | – | – | – | – | – | – | – | showed synergy | compensated for | improved the neuroprotection | – | – | – | – | – | – | – | relative potency of combination with NPD1 ([2]; versus ELV-N32-Na and NPD1 together): more potent |
| CC/C=C\C[C@H](O)\C=C/C=C/C=C/[C@H](O)C/C=C\C/C=C\CCCCCCCCCCCCC(=O)[O-].[Na+] [ELV-N32-Na, sodium (14Z,17Z,20R,21E,23E,25Z,27S,29Z)-20,27-dihydroxydotriaconta-14,17,21,23,25,29-hexaenoate] | – | – | – | enhanced the abundance | enhanced the abundance | – | – | – | – | neuroprotection elicited | showed synergy | compensated for | improved the neuroprotection | enhanced | upregulate | attenuation of apoptosis | attenuated | 500 | 50 | positive rightward shift | relative potency in upregulating SIRT1 (ARPE-19 cells under UOS; UOS RPE cells): more potent than ELV-N34-Na |
| CC/C=C\C[C@H](O)\C=C/C=C/C=C/[C@H](O)C/C=C\C/C=C\CCCCCCCCCCCCCCC(=O)OC [ELV-N34-Me, methyl (16Z,19Z,22R,23E,25E,27Z,29S,31Z)-22,29-dihydroxytetratriaconta-16,19,23,25,27,31-hexaenoate] | – | – | – | – | – | – | – | – | – | – | – | – | – | – | – | – | attenuated | 500 | 50 | positive rightward shift | – |
| CC/C=C\C[C@H](O)\C=C/C=C/C=C/[C@H](O)C/C=C\C/C=C\CCCCCCCCCCCCCCC(=O)[O-].[Na+] [ELV-N34-Na, sodium (16Z,19Z,22R,23E,25E,27Z,29S,31Z)-22,29-dihydroxytetratriaconta-16,19,23,25,27,31-hexaenoate] | – | – | – | enhanced the abundance | enhanced the abundance | – | – | – | – | neuroprotection elicited | – | – | – | enhanced | upregulate | attenuation of apoptosis | – | – | – | – | – |

From patent US20220226270A1, “VERY-LONG-CHAIN POLYUNSATURATED FATTY ACIDS, ELOVANOID HYDROXYLATED DERIVATIVES, AND METHODS OF USE” (Board of Supervisors of Louisiana State University and …, priority 2019, published 2022)
